Data reported in patent publication US20240174690A1, “ANNULATED 2-AMINO-3-CYANO THIOPHENES AND DERIVATIVES FOR THE TREATMENT OF CANCER” (BOEHRINGER INGELHEIM INTERNATIONAL GMBH, priority 2021, published 2024).

Assays:
Type in all cases: cell-based
[1] = test system: KRAS G12D-dependent Ba/F3 cells; test: Ba/F3 proliferation assay, KRAS G12D; settings: Mus musculus, BaF3, 72 h, AlamarBlue
Outline: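 Cells: murine Ba/F3 transduced with mutant KRAS by retrovirus, selected with 1 μg/mL puromycin, then weaned off IL-3. Compound exposure in duplicate, followed by AlamarBlue viability staining and curve fitting.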

AsPC-1 cells = test: AsPC-1 CTG proliferation assay (120 h) (pancreatic cancer, G12D); settings: Homo sapiens, ASPC1
Description: AsPC-1 CTG Proliferation Assay (120 h) (Pancreatic Cancer, G12D)
The CTG assay is designed to measure quantitatively the proliferation of AsPC-1 cells (ATCC […]), using the CellTiter Glow Assay Kit (Promega G7571). Cells are grown in RPMI medium (ATCC) supplemented with Fetal Calf Serum (Life Technologies, Gibco BRL, Cat. No. 10270-106). On “day 0” 2000 AsPC-1 cells are seeded in 60 μL RPMI ATCC+10% FCS+Penstrep in a 384-well plate, flat and clear bottom (Greiner, PNr. 781091). Cells are then incubated in the plates at 37° C. in a CO2 incubator overnight. On day 1, compounds (10 mM stock in DMSO) are added with the ECHO acoustic liquid handler system (Beckman Coulter), including DMSO controls. Plates are incubated for 120 h, and cell viability is measured using CellTiter-Glo luminescent cell viability reagent (Promega product code G7570). Viability (stated as percent of control) is defined as relative luminescence units RLU of each well divided by the RLU of cells in DMSO controls. IC50 values are determined from viability measurements by non-linear regression using a four-parameter model.

LOVO cells = test: LOVO CTG proliferation assay (120 h) (CRC, G13D); settings: Homo sapiens, CTG 120 h
Description: LOVO CTG Proliferation Assay (120 h) (CRC, G13D)
LOVO cells (ATCC CCL-229) are dispensed into 384-well plates, flat and clear bottom (Greiner, PNr. 781091) at a density of 1000 cells per well in 60 μL DMEM (Sigma D6429)+10% Fetal Calf Serum (HyClone, PNr.: SH30084.03) and incubated at 37° C. in a CO2 incubator overnight. The next day, compounds (10 mM stock in DMSO) are added with the ECHO acoustic liquid handler system (Beckman Coulter), including DMSO controls. Plates are incubated for 120 h, and cell viability is measured using CellTiter-Glo luminescent cell viability reagent (Promega product code G7570). Viability (stated as percent of control) is defined as relative luminescence units RLU of each well divided by the RLU of cells in DMSO controls. IC50 values are determined from viability measurements by non-linear regression using a four-parameter model.

Structure (SMILES)	IC50 [1]	IC50 (AsPC-1 cells)	IC50 (LOVO cells)
C[C@H](Oc1cc(C2COCCO2)nc(-c2noc3c2CCC[C@@]32CCCc3sc(N)c(C#N)c32)n1)[C@@H]1CCCN1C (stereo partly drawn) [II-95]	81 nM	3320 nM	149 nM
C[C@H](Oc1cc(N2CCNC3(CC3)C2)nc(-c2noc3c2CCC[C@@]32CCCc3sc(N)c(C#N)c32)n1)[C@@H]1CCCN1C [II-54]	1 nM	67 nM	531 nM
C[C@H](Oc1cc(-n2cc(-c3cccnc3)nn2)nc(-c2noc3c2CCC[C@@]32CCCc3sc(N)c(C#N)c32)n1)[C@@H]1CCCN1C [II-123]	93 nM	1540 nM	72 nM
C[C@H](Oc1cc(N2C[C@H](C)N[C@@H](C)C2)nc(-c2noc3c2CCC[C@@]32CCCc3sc(N)c(C#N)c32)n1)[C@@H]1CCCN1C [II-56]	20 nM	378 nM	661 nM
C[C@H](Oc1cc(N2CC[C@@H](O)C2)nc(-c2noc3c2CCC[C@@]32CCCc3sc(N)c(C#N)c32)n1)[C@@H]1CCCN1C [II-66]	71 nM	3970 nM	3680 nM

Results, then the compound that gave them:

IC50 [1]	IC50 (AsPC-1 cells)	IC50 (LOVO cells)	Structure (SMILES)
37 nM	1320 nM	150 nM	C[C@H](Oc1cc(-n2cncc3ccnc2-3)nc(-c2noc3c2CCC[C@@]32CCCc3sc(N)c(C#N)c32)n1)[C@@H]1CCCN1C [II-105]
77 nM	3240 nM	894 nM	Cc1cn(C)nc1-c1cc(O[C@@H](C)[C@@H]2CCCN2C)nc(-c2noc3c2CCC[C@@]32CCCc3sc(N)c(C#N)c32)n1 [II-68]
87 nM	2120 nM	175 nM	C[C@H](Oc1cc(-c2ccncc2)nc(-c2noc3c2CCC[C@@]32CCCc3sc(N)c(C#N)c32)n1)[C@@H]1CCCN1C [II-78]
23 nM	2240 nM	231 nM	C[C@H](Oc1cc(-c2ccn(C)n2)nc(-c2noc3c2CCC[C@@]32CCCc3sc(N)c(C#N)c32)n1)[C@@H]1CCCN1C [II-96]
